Test: pH dependent solubility of retigabine
Settings: around pH 2 (stomach) versus around pH 7 (lower intestine)

## CCOC(=O)Nc1ccc(NCc2ccc(F)cc2)cc1N [Retigabine]
  pH dependent solubility: more soluble in the acidic conditions of the stomach (around pH 2) than in the near neutral conditions of the lower intestine (around pH 7)

Reference: patent US20120288544A1, “NOVEL RETIGABINE COMPOSITION” (GLAXO GROUP LIMITED, priority 2010, published 2012)
